# Data taken from publication PMC5218480 (PLoS ONE, 2017).
# Tested on: MV-4-11 cells
# Assay: Gene expression microarray analysis (Affymetrix PrimeView) and GSEA
# Assay type: cell-based, human
# Design: RFU PODN (11730768_x_at) / Fold change /veh PODN (11730768_x_at) / RFU LINC00158 (11744669_a_at) / Fold change /veh LINC00158 (11744669_a_at) / RFU DUSP10 (11751237_a_at) / Fold change /veh DUSP10 (11751237_a_at) / RFU ID3 (11757404_x_at) / Fold change /veh ID3 (11757404_x_at) / RFU PLEKHG5 (11737974_s_at) / Fold change /veh PLEKHG5 (11737974_s_at) / RFU LRRC4B (11730491_at) / Fold change /veh LRRC4B (11730491_at) / RFU GIMAP4 (11747438_a_at) / Fold change /veh GIMAP4 (11747438_a_at) / RFU KRT8 (11758183_x_at) / Fold change /veh KRT8 (11758183_x_at) / RFU CNN1 (11734310_a_at) / Fold change /veh CNN1 (11734310_a_at) / RFU VPS37D (11726825_at) / Fold change /veh VPS37D (11726825_at) / RFU C10orf10 (11716522_x_at) / Fold change /veh C10orf10 (11716522_x_at) / RFU KIR2DL2 /// KIR2DL4 /// KIR2DL5A /// KIR2DL5B /// KIR2DS1 /// KIR2DS2 /// KIR2DS3 /// KIR2DS4 /// KIR3DL3 /// KIR3DL3 /// KIR3DS1 (11738374_at) / Fold change /veh KIR2DL2 /// KIR2DL4 /// KIR2DL5A /// KIR2DL5B /// KIR2DS1 /// KIR2DS2 /// KIR2DS3 /// KIR2DS4 /// KIR3DL3 /// KIR3DL3 /// KIR3DS1 (11738374_at) / RFU C1QL1 (11718748_at) / Fold change /veh C1QL1 (11718748_at) / RFU TMPRSS4 (11747572_a_at) / Fold change /veh TMPRSS4 (11747572_a_at) / RFU HAMP (11756126_x_at) / Fold change /veh HAMP (11756126_x_at) / RFU RNFT2 (11725882_a_at) / Fold change /veh RNFT2 (11725882_a_at) / RFU NR4A2 (11747474_a_at) / Fold change /veh NR4A2 (11747474_a_at) / RFU ABCC12 (11746883_a_at) / Fold change /veh ABCC12 (11746883_a_at) / RFU TMEM136 (11760407_x_at) / Fold change /veh TMEM136 (11760407_x_at) / RFU CLDN22 /// WWC2 (11732394_at) / Fold change /veh CLDN22 /// WWC2 (11732394_at) / RFU HLA-DPB1 (11760878_x_at) / Fold change /veh HLA-DPB1 (11760878_x_at) / RFU SPINT1 (11716480_a_at) / Fold change /veh SPINT1 (11716480_a_at) / RFU GAP43 (11754022_s_at) / Fold change /veh GAP43 (11754022_s_at) / RFU A4GNT (11735810_at) / Fold change /veh A4GNT (11735810_at) / RFU PRB3 (11715151_x_at) / Fold change /veh PRB3 (11715151_x_at) / RFU TUBB4B (11761932_at) / Fold change /veh TUBB4B (11761932_at) / RFU CAPN14 (11732068_a_at) / Fold change /veh CAPN14 (11732068_a_at) / RFU TMCC2 (11721928_a_at) / Fold change /veh TMCC2 (11721928_a_at) / RFU IRGQ (11745062_a_at) / Fold change /veh IRGQ (11745062_a_at) / RFU FAM174B (11720279_a_at) / Fold change /veh FAM174B (11720279_a_at) / RFU TMPRSS4 (11748680_a_at) / Fold change /veh TMPRSS4 (11748680_a_at) / RFU FAM212B (11763350_a_at) / Fold change /veh FAM212B (11763350_a_at) / RFU PLEKHG5 (11743358_a_at) / Fold change /veh PLEKHG5 (11743358_a_at) / RFU ZSCAN30 (11745921_a_at) / Fold change /veh ZSCAN30 (11745921_a_at) / RFU CMKLR1 (11741424_a_at) / Fold change /veh CMKLR1 (11741424_a_at) / RFU LOC101060620 /// MAPK8IP1 (11723275_at) / Fold change /veh LOC101060620 /// MAPK8IP1 (11723275_at) / RFU SPTSSB (11747773_x_at) / Fold change /veh SPTSSB (11747773_x_at) / RFU PRSS12 (11739890_at) / Fold change /veh PRSS12 (11739890_at) / RFU BIN1 (11741810_x_at) / Fold change /veh BIN1 (11741810_x_at) / RFU WNT11 (11732464_a_at) / Fold change /veh WNT11 (11732464_a_at) / RFU C10orf10 (11716521_a_at) / Fold change /veh C10orf10 (11716521_a_at) / RFU C5orf56 (11738089_at) / Fold change /veh C5orf56 (11738089_at) / RFU CYB561 (11721691_x_at) / Fold change /veh CYB561 (11721691_x_at) / RFU ANKRD19P (11752326_a_at) / Fold change /veh ANKRD19P (11752326_a_at) / RFU OR2T12 /// OR2T33 /// OR2T8 (11738714_s_at) / Fold change /veh OR2T12 /// OR2T33 /// OR2T8 (11738714_s_at) / RFU VCAN (11748164_a_at) / Fold change /veh VCAN (11748164_a_at) / RFU JSRP1 (11732532_at) / Fold change /veh JSRP1 (11732532_at) / RFU KRTAP10-11 (11738290_x_at) / Fold change /veh KRTAP10-11 (11738290_x_at) / RFU MYO3A (11730013_a_at) / Fold change /veh MYO3A (11730013_a_at) / RFU EBF3 (11725865_a_at) / Fold change /veh EBF3 (11725865_a_at) / RFU CAMK2N1 (11719241_x_at) / Fold change /veh CAMK2N1 (11719241_x_at) / RFU C5orf56 (11738088_a_at) / Fold change /veh C5orf56 (11738088_a_at) / RFU OLFML3 (11715873_a_at) / Fold change /veh OLFML3 (11715873_a_at) / RFU LOC100653217 /// NTM (11731650_a_at) / Fold change /veh LOC100653217 /// NTM (11731650_a_at) / RFU MAPK11 (11762145_a_at) / Fold change /veh MAPK11 (11762145_a_at) / RFU FIZ1 (11724087_x_at) / Fold change /veh FIZ1 (11724087_x_at) / RFU OASL (11726364_x_at) / Fold change /veh OASL (11726364_x_at) / RFU SOX15 (11748057_x_at) / Fold change /veh SOX15 (11748057_x_at) / RFU CD79A (11719716_a_at) / Fold change /veh CD79A (11719716_a_at) / RFU HIST1H1D (11736915_at) / Fold change /veh HIST1H1D (11736915_at) / RFU CASKIN2 (11723855_a_at) / Fold change /veh CASKIN2 (11723855_a_at) / RFU LOC730098 (11760151_x_at) / Fold change /veh LOC730098 (11760151_x_at) / RFU OR4N2 (11742367_at) / Fold change /veh OR4N2 (11742367_at) / RFU PRRT2 (11749266_a_at) / Fold change /veh PRRT2 (11749266_a_at) / RFU SNX32 (11753110_a_at) / Fold change /veh SNX32 (11753110_a_at) / RFU CDHR5 (11726645_a_at) / Fold change /veh CDHR5 (11726645_a_at) / RFU RCAN1 (11760418_a_at) / Fold change /veh RCAN1 (11760418_a_at) / RFU FAM167A (11723789_a_at) / Fold change /veh FAM167A (11723789_a_at) / RFU FAM26E (11764081_at) / Fold change /veh FAM26E (11764081_at) / RFU ISYNA1 (11749810_s_at) / Fold change /veh ISYNA1 (11749810_s_at) / RFU ACY1 (11761880_at) / Fold change /veh ACY1 (11761880_at) / RFU 11764098_at / Fold change /veh 11764098_at / RFU SAMD14 (11745864_x_at) / Fold change /veh SAMD14 (11745864_x_at) / RFU NPB (11741838_a_at) / Fold change /veh NPB (11741838_a_at) / RFU TMPRSS6 (11731388_a_at) / Fold change /veh TMPRSS6 (11731388_a_at) / RFU KRTAP10-2 (11738614_at) / Fold change /veh KRTAP10-2 (11738614_at) / RFU ARHGAP8 /// PRR5-ARHGAP8 (11727945_x_at) / Fold change /veh ARHGAP8 /// PRR5-ARHGAP8 (11727945_x_at) / RFU KRTAP5-7 /// NADSYN1 (11734609_at) / Fold change /veh KRTAP5-7 /// NADSYN1 (11734609_at) / RFU RASL12 (11751679_a_at) / Fold change /veh RASL12 (11751679_a_at) / RFU CDKN2B (11736163_a_at) / Fold change /veh CDKN2B (11736163_a_at) / RFU PRF1 (11729649_at) / Fold change /veh PRF1 (11729649_at) / RFU, ZNF638 /// ZNF638-IT1 / Fold change vs veh, ZNF638 /// ZNF638-IT1 / RFU, PANK3 / Fold change vs veh, PANK3 / RFU, SH3YL1 / Fold change vs veh, SH3YL1 / RFU, ZEB2 / Fold change vs veh, ZEB2 / RFU, NRIP1 / Fold change vs veh, NRIP1 / RFU, PTTG1IP / Fold change vs veh, PTTG1IP / RFU, CAPN2 / Fold change vs veh, CAPN2 / RFU, MED14 / Fold change vs veh, MED14 / RFU, SNORA58 / Fold change vs veh, SNORA58 / RFU, C1orf63 / Fold change vs veh, C1orf63 / RFU, LRRFIP1 / Fold change vs veh, LRRFIP1 / RFU, NDUFAF7 / Fold change vs veh, NDUFAF7 / RFU, SLC12A2 / Fold change vs veh, SLC12A2 / RFU, IBTK / Fold change vs veh, IBTK / RFU, ESF1 / Fold change vs veh, ESF1 / Fold change vs veh, TMEM50B / RFU, TAOK1 / Fold change vs veh, TAOK1 / RFU, ACBD3 / Fold change vs veh, ACBD3 / RFU, TMA16 / Fold change vs veh, TMA16 / RFU, RWDD3 / Fold change vs veh, RWDD3 / RFU, BCAT1 / Fold change vs veh, BCAT1 / RFU, EDEM3 / Fold change vs veh, EDEM3 / RFU, TMEM33 / Fold change vs veh, TMEM33 / RFU, WDR75 / Fold change vs veh, WDR75 / RFU, AHCTF1 / Fold change vs veh, AHCTF1 / RFU, TFRC / Fold change vs veh, TFRC / RFU, ZDHHC17 / Fold change vs veh, ZDHHC17 / RFU, NOM1 / Fold change vs veh, NOM1 / RFU, ARL8B / Fold change vs veh, ARL8B / RFU, ZBTB11 / Fold change vs veh, ZBTB11 / RFU, TAMM41 / Fold change vs veh, TAMM41 / RFU, KIAA1704 /// LOC100996395 / Fold change vs veh, KIAA1704 /// LOC100996395 / RFU, ING1 / Fold change vs veh, ING1 / RFU, TRMT61B / Fold change vs veh, TRMT61B / RFU, FUBP3 / Fold change vs veh, FUBP3 / RFU, TP53 / Fold change vs veh, TP53 / RFU, TNKS2 / Fold change vs veh, TNKS2 / RFU, ZFP14 / Fold change vs veh, ZFP14 / RFU, ACTR2 / Fold change vs veh, ACTR2 / RFU, PPP3R1 / Fold change vs veh, PPP3R1 / RFU, PIK3R1 / Fold change vs veh, PIK3R1 / RFU, HNRNPA1 / Fold change vs veh, HNRNPA1 / RFU, RNF170 / Fold change vs veh, RNF170 / RFU, ZNF28 / Fold change vs veh, ZNF28 / RFU, RNGTT / Fold change vs veh, RNGTT / RFU, OGT / Fold change vs veh, OGT / RFU, BRD1 / Fold change vs veh, BRD1 / RFU, MARS / Fold change vs veh, MARS / RFU, ZNF655 / Fold change vs veh, ZNF655 / RFU, FAHD1 / Fold change vs veh, FAHD1 / RFU, BDP1 / Fold change vs veh, BDP1 / RFU, LRRCC1 / Fold change vs veh, LRRCC1 / RFU, ARID1A / Fold change vs veh, ARID1A / RFU, ZNF146 / Fold change vs veh, ZNF146 / RFU, ZNF330 / Fold change vs veh, ZNF330 / RFU, GPN3 / Fold change vs veh, GPN3 / RFU, C9orf123 / Fold change vs veh, C9orf123 / RFU, N4BP2L2 / Fold change vs veh, N4BP2L2 / RFU, ARFIP1 / Fold change vs veh, ARFIP1 / RFU, FAM179B / Fold change vs veh, FAM179B / RFU, BCL10 / Fold change vs veh, BCL10 / RFU, UHRF1BP1L / Fold change vs veh, UHRF1BP1L / RFU, BET1 / Fold change vs veh, BET1 / RFU, CNOT2 / Fold change vs veh, CNOT2 / RFU, ZNF268 / Fold change vs veh, ZNF268 / Fold change vs veh, ZNF507 / RFU, DGCR2 / Fold change vs veh, DGCR2 / RFU, WDSUB1 / Fold change vs veh, WDSUB1 / Fold change vs veh, HSP90B1 /// MIR3652 / RFU, ADSS / Fold change vs veh, ADSS / RFU, GK / Fold change vs veh, GK / RFU, ZNF148 / Fold change vs veh, ZNF148 / RFU, TAF9 / Fold change vs veh, TAF9 / RFU, SLC1A5 / Fold change vs veh, SLC1A5 / RFU, SLMO2 / Fold change vs veh, SLMO2 / RFU, ABCC4 / Fold change vs veh, ABCC4 / RFU, LOC101060439 /// RAP1B / Fold change vs veh, LOC101060439 /// RAP1B / RFU, RFX7 / Fold change vs veh, RFX7 / RFU, GTPBP10 / Fold change vs veh, GTPBP10 / RFU, CNEP1R1 / Fold change vs veh, CNEP1R1 / RFU, BIVM-ERCC5 /// ERCC5 / Fold change vs veh, BIVM-ERCC5 /// ERCC5 / RFU, ILF3 / Fold change vs veh, ILF3 / RFU 11762660_at / Fold change /veh 11762660_at / RFU VCAN (11757783_s_at) / Fold change /veh VCAN (11757783_s_at) / RFU DDX43 (11728927_at) / Fold change /veh DDX43 (11728927_at) / RFU KRT8 (11758188_x_at) / Fold change /veh KRT8 (11758188_x_at) / RFU NKD1 (11759106_at) / Fold change /veh NKD1 (11759106_at) / RFU SRD5A1 (11742802_a_at) / Fold change /veh SRD5A1 (11742802_a_at) / RFU TPSAB1 /// TPSB2 (11721975_s_at) / Fold change /veh TPSAB1 /// TPSB2 (11721975_s_at) / RFU GSTM3 (11746129_a_at) / Fold change /veh GSTM3 (11746129_a_at) / RFU IL23R (11737362_x_at) / Fold change /veh IL23R (11737362_x_at) / RFU TMEM51 (11727254_a_at) / Fold change /veh TMEM51 (11727254_a_at) / RFU PIWIL2 (11732686_x_at) / Fold change /veh PIWIL2 (11732686_x_at) / RFU ORM1 (11744905_x_at) / Fold change /veh ORM1 (11744905_x_at) / RFU CCDC152 (11743942_at) / Fold change /veh CCDC152 (11743942_at) / RFU ECM1 (11717891_a_at) / Fold change /veh ECM1 (11717891_a_at) / RFU IL23R (11748794_a_at) / Fold change /veh IL23R (11748794_a_at) / RFU TNFAIP8L3 (11732012_x_at) / Fold change /veh TNFAIP8L3 (11732012_x_at) / RFU MBOAT4 (11741988_at) / Fold change /veh MBOAT4 (11741988_at) / RFU 11764193_at / Fold change /veh 11764193_at / RFU TMEM53 (11763286_at) / Fold change /veh TMEM53 (11763286_at) / RFU MAGEB2 (11727129_at) / Fold change /veh MAGEB2 (11727129_at) / RFU TMEM200A (11744735_a_at) / Fold change /veh TMEM200A (11744735_a_at) / RFU CCDC152 (11751479_a_at) / Fold change /veh CCDC152 (11751479_a_at) / RFU FAM211A (11726209_a_at) / Fold change /veh FAM211A (11726209_a_at) / RFU RGS16 (11746705_a_at) / Fold change /veh RGS16 (11746705_a_at) / RFU VCAN (11755009_s_at) / Fold change /veh VCAN (11755009_s_at) / RFU RHOB (11743442_s_at) / Fold change /veh RHOB (11743442_s_at) / RFU RGS16 (11720943_a_at) / Fold change /veh RGS16 (11720943_a_at) / RFU RGS16 (11720944_at) / Fold change /veh RGS16 (11720944_at) / RFU, VPS4B / Fold change vs veh, VPS4B / RFU, CREB1 / Fold change vs veh, CREB1 / RFU, DNAJC13 / Fold change vs veh, DNAJC13 / RFU, GNAQ / Fold change vs veh, GNAQ / RFU, CDK5R1 / Fold change vs veh, CDK5R1 / RFU, ZRANB3 / Fold change vs veh, ZRANB3 / RFU, CUL4A / Fold change vs veh, CUL4A / RFU, CCNY / Fold change vs veh, CCNY / RFU, UFL1 / Fold change vs veh, UFL1 / RFU, COG3 / Fold change vs veh, COG3 / RFU, DIAPH2 / Fold change vs veh, DIAPH2 / RFU, SKA2 / Fold change vs veh, SKA2 / RFU, AFF3 / Fold change vs veh, AFF3 / RFU, LMF1 / Fold change vs veh, LMF1 / RFU, IPO11 / Fold change vs veh, IPO11 / RFU, DFFB / Fold change vs veh, DFFB / RFU, FOXP1 / Fold change vs veh, FOXP1 / RFU, CARD8 / Fold change vs veh, CARD8 / RFU, STRN3 / Fold change vs veh, STRN3 / RFU, ADK / Fold change vs veh, ADK / RFU, RASSF2 / Fold change vs veh, RASSF2 / RFU, WIPF1 / Fold change vs veh, WIPF1 / RFU, LARP1B / Fold change vs veh, LARP1B / RFU, RASA1 / Fold change vs veh, RASA1 / RFU, RB1 / Fold change vs veh, RB1 / RFU, PPFIA1 / Fold change vs veh, PPFIA1 / RFU, MAT2A / Fold change vs veh, MAT2A / RFU, CCT5 / Fold change vs veh, CCT5 / RFU, WDR92 / Fold change vs veh, WDR92 / RFU, CUX1 / Fold change vs veh, CUX1 / RFU, TTC7A / Fold change vs veh, TTC7A / RFU, TMEM135 / Fold change vs veh, TMEM135 / RFU, DEPTOR / Fold change vs veh, DEPTOR / RFU, CPM / Fold change vs veh, CPM / RFU, DNAJB6 / Fold change vs veh, DNAJB6 / RFU, CACNA2D3 / Fold change vs veh, CACNA2D3 / RFU, DTX4 / Fold change vs veh, DTX4 / RFU, TFCP2 / Fold change vs veh, TFCP2 / RFU, GMCL1 /// GMCL1P1 / Fold change vs veh, GMCL1 /// GMCL1P1 / RFU, AEBP2 / Fold change vs veh, AEBP2 / RFU, SNHG1 /// SNORD22 /// SNORD25 /// SNORD26 /// SNORD27 /// SNORD28 /// SNORD29 /// SNORD31 / Fold change vs veh, SNHG1 /// SNORD22 /// SNORD25 /// SNORD26 /// SNORD27 /// SNORD28 /// SNORD29 /// SNORD31 / Fold change (Aza/veh), C12orf56 (ProbeSet 11735607_a_at) / Fold change (ACY-1035/veh), C12orf56 (ProbeSet 11735607_a_at) / Fold change (Aza/veh), FGFR1OP (ProbeSet 11751329_s_at) / Fold change (ACY-1035/veh), FGFR1OP (ProbeSet 11751329_s_at) / Fold change (Aza/veh), VPS36 (ProbeSet 11739960_a_at) / Fold change (ACY-1035/veh), VPS36 (ProbeSet 11739960_a_at) / RFU SYPL1 (11715823_x_at) / Fold change /veh SYPL1 (11715823_x_at) / RFU IGFBP7 (11715501_s_at) / Fold change /veh IGFBP7 (11715501_s_at) / RFU REEP3 (11722064_at) / Fold change /veh REEP3 (11722064_at) / RFU IGLL1 (11728026_x_at) / Fold change /veh IGLL1 (11728026_x_at): dose or concentration left out as unconfirmed
# Conditions: MV-4-11 cells, 48 hours
smiles,measurement,value
Nc1ccc(-c2cccs2)cc1NC(=O)c1ccc2c(c1)cc(C1CC1)n2CCN1CCOCC1 [ACY-1035],RFU OR4N2 (11742367_at),72.30 RFU
